Measurements from publication PMC11201061, “Mechanistic Study of Antimicrobial Effectiveness of Cyclic Amphipathic Peptide [R4W4] against Methicillin-Resistant Staphylococcus aureus Clinical Isolates” (Antibiotics, 2024).
Values after ≈ are worked out from the molar mass of the structure shown. Counter-ions that a name gives are not always drawn. Like-named read-outs stand apart in the source and are kept apart here. Where a SMILES comes first, the peptide text is derived from it.

Legend:
B. subtilis 21332 = assay: microbe, parasite or virus in culture; format: cell-based, Bacillus subtilis; conditions: for MBC/MIC: B. subtilis ATCC 21332
Protocol: (§1) To determine whether the antibacterial activity of [R4W4] is bacteriostatic or bactericidal against clinical isolates of multidrug-resistant bacterial isolates, MIC and MBC were determined using the microbroth dilution method. Bacteriostatic activity was defined as a ratio of the MBC/MIC greater than four and bactericidal activity as MBC/MIC ratio ≤ 4 [33]. We added aliquots of test samples (256 μg/mL concentration of [R4W4] or vancomycin as a control prepared in TSB) to the first well of microplates. MHB media was added to the remaining wells. Two-fold serial dilutions were performed, starting with the highest drug concentration in well 1, and the dilution process continued. A bacterial aliquot of 1/150 dilution was prepared with a 0.5 McFarland standard solution from an overnight culture of the tested bacteria isolate. Bacteria were added to the microplate and placed into wells with the drug dilutions. The microplates were incubated overnight for 24 h at 37 °C. [R4W4] was synthesized and purified, as reported earlier.

C. difficile 9689 = assay: microbe, parasite or virus in culture; format: cell-based, Clostridioides difficile; conditions: for MBC/MIC: C. difficile ATCC 9689, stool isolate
Protocol: as §1

MRSA USA300 [1] = assay: microbe, parasite or virus in culture; conditions: for MIC against index isolate (no serial passage): MRSA USA300 index strain
Protocol: MRSA USA300 bacteria from −80 °C freezer stock were cultured on an LB agar plate overnight. One bacteria colony was added to a 6 mL fresh MHB with constant shaking at 200 rpm at 37 °C. The bacteria were transferred daily by inoculating 10 μL of stationary-phase culture into […] of MHB in a 1 mL cap-clipped Eppendorf tube. Then, 20 μL of bacteria aliquot was added to […] of MHB broth, with or without [R4W4], at a final concentration of the MIC overnight in an […] at 37 °C for five transfers. […] […] Experiments were performed in triplicates. Every time we increased the concentration of [R4W4], a sample of the induction generation was inoculated into 20% (vol/vol) glycerol and stored at −70 °C. The final MIC values of [R4W4], vancomycin, and levofloxacin were determined by modified microbroth dilution assay.

MRSA LAC = assay: Thermal stability by MIC after heat exposure; format: cell-based, Staphylococcus aureus; conditions: [R4W4] stock exposed to 25, 50, 75 and 100 °C (10 min), then microbroth dilution
Protocol: As per temperature sensitivity, the [R4W4] stock solution (1.15 mg/mL) in a 2 mL Eppendorf microtube was exposed to 100 °C for 10 min. After the thermal exposure, the [R4W4] antibacterial effectiveness was evaluated against MRSA using a microbroth dilution assay, as explained above.

MRSA LAC USA300 = assay: Surface charge neutralization by zeta potential; format: cell-based, Staphylococcus aureus; conditions: for zeta potential of MRSA after treatment: agent at 16 μg/mL (4 × MIC of [R4W4]), HEPES pH 7.4, 150 mM NaCl, 25 °C, mean of triplicate, untreated −31 ± 0.88 mV
Protocol: Stock cultures of the MRSA strain from −80 °C were inoculated on MHB agar plates at 37 °C overnight. Two isolated colonies were inoculated in 6 mL MHB broth and allowed to grow overnight with shaking at 225 rpm. A 100 µL bacteria aliquot was added to a 5 mL fresh MHB, and the suspension was incubated to grow for 2 h at 37 °C to achieve a final bacteria concentration of ~3 × 10^8 CFU/mL as (A 600 ~0.1). The bacterial suspension was diluted using fresh MHB to 3 × 10^5 CFU/mL. The bacterial suspension was centrifuged at 11,400× g for 10 min and washed twice using 10 mM HEPES buffer, pH 7.4, containing 150 mM NaCl (normal saline).
An amount of 100 µLs of test samples was added to 900 µL of the bacterial aliquots using a positive buffer without test samples.
Meanwhile, the Malvern Zetasizer Nano was set to read samples at 25 °C. The bacterial suspension was dispensed into disposable zeta cells with gold electrodes and allowed to equilibrate for 15 min at 25 °C. The zeta potential value for each sample was calculated from the measured value of electrophoretic mobility using the Smuluchowski equation.

MRSA USA300 [2] = assay: microbe, parasite or virus in culture; conditions: for MIC: Staphylococcus aureus
Protocol: The interaction of [R4W4], melittin, and vancomycin with LTA in the presence of MRSA was determined using a microbroth dilution assay. Two-fold serial dilution was used to achieve a 100 μL final concentration of the antibacterial agents in a 96 microplate well. A 360 μL S. aureus LTA (Sigma Aldrich stock 5 mg/mL) was added to 17.64 mL MHB containing MRSA (5 x 10^5 CFU/mL) to achieve the final concentration of S. aureus LTA 100 μg/mL. Then, 100 μL aliquots of MHB (MRSA (5 × 10^5 CFU/mL) and 100 μg/mL S. aureus LTA) were added to the 96 microtiter wells containing the antibacterial agents. The microplate was incubated overnight at 37 °C to obtain the MICs. Controls were bacteria grown in the presence of LTA alone and in MHB alone.

[3] = tested on: Enterococcus faecium (VRE); format: cell-based; conditions: urine isolate
Protocol: as §1

[4] = tested on: bacterial isolates (nine MRSA, B. subtilis, C. difficile, VRE); format: cell-based; conditions: for bacteriostatic or bactericidal (Pankey's definition, MBC/MIC ≤ 4 bactericidal): all tested bacterial isolates; for MBC increase over MIC values: all the strains tested
Protocol: as §1

in vitro = conditions: human, 25% human serum
Protocol: Fresh human serum (4 mL) was centrifuged at 12,500× g for 15 min at 4 °C to remove the lipids. A 25% human serum sample was prepared by adding 375 µL of the human serum supernatant to 1125 µL of RPMI buffer. […] The test sample was incubated in a water bath at 37 °C until a predetermined time interval (0, 1, 2, 4, 6, 8.5, 12, and 20 h). At the time intervals, a 150 µL aliquot test sample was added to a 300 µL cocktail solution [ethanol/formic acid (98:2 v/v) mixture] to cease the reaction. The test samples of aliquots were stored on dry ice for 20 min and then centrifuged at 17,200× g for 20 min. For LC-MS analysis, 150 µL supernatant aliquot test samples were stored at −20 °C [54].
A 20 μL aliquot of each sample was analyzed using an Xterra MS C18 column (3.9 × 150 mm, 5 μm, Waters, MA, USA), Nexera XR, and Prominence Shimadzu LC-20AD XR systems (Shimadzu Corporation, Kyoto, Japan) coupled with Shimadzu LC-MS-2020 mass spectrometer (Shimadzu, OR, USA). A two-component LC system consisted of mobile phase A (0.1% formic acid and 10% acetonitrile in water) and mobile phase B (0.1% formic acid and 100% acetonitrile). The flow rate was set at 1.0 mL/min. The Xterra MS C18 column at 40 °C was allowed to equilibrate with 95% mobile phase A. Peptides were loaded to the column and washed for 5 min with 95% mobile Phase A. Analytes were separated using a binary gradient of 0–95% mobile Phase B for 25 min. […] MS was conducted in multiple reaction monitoring and positive electrospray ionization mode. Fourteen concentrations of [R4W4] prepared by two-fold dilution of 200 μg/mL to 0.39 μg/mL were used to prepare calibration curves. The calibration curves were plotted using weighted (1/×2) least-squares linear regression analysis of peptide mass spectra area under the curve (AUC) versus concentration.

## N=C(N)NCCC[C@@H]1NC(=O)[C@H](CCCNC(=N)N)NC(=O)[C@H](CCCNC(=N)N)NC(=O)[C@H](Cc2c[nH]c3ccccc23)NC(=O)[C@H](Cc2c[nH]c3ccccc23)NC(=O)[C@H](Cc2c[nH]c3ccccc23)NC(=O)[C@H](Cc2c[nH]c3ccccc23)NC(=O)[C@H](CCCNC(=N)N)NC1=O [[R4W4]] (cyclo(RRRRWWWW))
B. subtilis 21332; 21332, 24 h
  MBC: 8 µg/mL (≈ 5.84 µM)
  MIC: 4 µg/mL (≈ 2.92 µM)
B. subtilis 21332
  MBC/MIC: 2
C. difficile 9689; 9689, 24 h
  MBC: 4 µg/mL (≈ 2.92 µM)
  MIC: 2 µg/mL (≈ 1.46 µM)
C. difficile 9689
  MBC/MIC: 2
MRSA USA300 [1]; MRSA USA300, 35 passages, stepwise increasing concentration
  final [R4W4] concentration at which growth was achieved at the end of serial passage: 32 µg/mL
MRSA USA300 [1]; MRSA USA300 after serial passage in [R4W4], MIC in duplicate
  MIC against serial passaged [R4W4]-resistant isolate: 16 µg/mL (≈ 11.7 µM)
MRSA USA300 [1]; MIC in duplicate
  MIC against index isolate (no serial passage): 4 µg/mL (≈ 2.92 µM)
MRSA LAC
  MIC after thermal exposure: 4 µg/mL (≈ 2.92 µM)
MRSA LAC USA300; 2 × MIC
  concentration required to achieve neutralization of negative surface charge: 8 µg/mL
MRSA LAC USA300
  zeta potential of MRSA after treatment: −8.37 mV
MRSA USA300 [2]; MRSA USA300, 100 μg/mL S. aureus LTA in MHB, overnight 37 °C, duplicate
  MIC in the presence of LTA: 8 µg/mL
MRSA USA300 [2]; MRSA USA300, MHB, overnight 37 °C, duplicate
  MIC in the absence of LTA: 8 µg/mL
[3]
  MBC/MIC: 4
[4]; 24 h
  MIC range, MRSA clinical isolates from the blood: 2 to 4 µg/mL
  MIC range, MRSA clinical isolates from the lungs: 16 to 32 µg/mL
[4]
  bacteriostatic or bactericidal (Pankey's definition, MBC/MIC ≤ 4 bactericidal): bactericidal
  MBC increase over MIC values: 2–4 fold
In vitro
  half-life at 100 µg/mL: > 20 h
  remaining at 1 h, 100 µg/mL: ~99%
  remaining at 2 h, 100 µg/mL: 93%
  remaining at 6 h, 100 µg/mL: 80%
  remaining at 12 h, 100 µg/mL: 77%
  remaining at 20 h, 100 µg/mL: 76%

## CN[C@H](CC(C)C)C(=O)N[C@H]1C(=O)N[C@@H](CC(N)=O)C(=O)N[C@H]2C(=O)N[C@H]3C(=O)N[C@H](C(=O)N[C@H](C(=O)O)c4cc(O)cc(O)c4-c4cc3ccc4O)[C@H](O)c3ccc(c(Cl)c3)Oc3cc2cc(c3O[C@@H]2O[C@H](CO)[C@@H](O)[C@H](O)[C@H]2O[C@H]2C[C@](C)(N)[C@H](O)[C@H](C)O2)Oc2ccc(cc2Cl)[C@H]1O [Vancomycin, Vancomycin Hydrochloride, reference compound]
B. subtilis 21332
  MBC/MIC: 2
B. subtilis 21332; Bacillus subtilis, ATCC21332
  MBC: 0.5 µg/mL
B. subtilis 21332; Bacillus subtilis, ATCC21332, 24 h
  MIC: 0.25 µg/mL
C. difficile 9689
  MBC/MIC: 2
C. difficile 9689; Clostridioides difficile, ATCC9689
  MBC: 1 µg/mL
C. difficile 9689; Clostridioides difficile, ATCC9689, 24 h
  MIC: 0.5 µg/mL
MRSA USA300 [1]; MIC in duplicate
  MIC against index isolate (no serial passage): 0.5 µg/mL
MRSA USA300 [1]; MRSA USA300 passaged versus index strain
  change in MIC after serial passage: 4 folds
MRSA USA300 [1]; Staphylococcus aureus, MRSA|USA300, read-out: MIC against serial passaged [R4W4]-resistant isolate
  MIC: 4 µg/mL
MRSA LAC USA300
  zeta potential of MRSA after treatment: −33.03 mV
MRSA USA300 [2]; read-out: MIC in the absence of LTA
  MIC: 2 µg/mL
MRSA USA300 [2]; read-out: MIC in the presence of LTA
  MIC: 2 µg/mL
[3]; microbroth dilution, 24 h, 37 °C, averages of triplicates of three different experiments, N/A = not active
  MIC: not active
[4]
  bacteriostatic or bactericidal (Pankey's definition, MBC/MIC ≤ 4 bactericidal): bactericidal
  MBC increase over MIC values: 2–4 fold
